Test results from patent publication US20220388964A1 (HiberCell, Inc., priority 2019, published 2022).

Biological target: GCN2 (Homo sapiens, UniProt Q9P2K8)
Experiment: TR-FRET biochemical assay for inhibition of GCN2 (Example 106, for Example 1-4BB)
Conditions: Table 8

GCN2, sequence (Q9P2K8 whole entry): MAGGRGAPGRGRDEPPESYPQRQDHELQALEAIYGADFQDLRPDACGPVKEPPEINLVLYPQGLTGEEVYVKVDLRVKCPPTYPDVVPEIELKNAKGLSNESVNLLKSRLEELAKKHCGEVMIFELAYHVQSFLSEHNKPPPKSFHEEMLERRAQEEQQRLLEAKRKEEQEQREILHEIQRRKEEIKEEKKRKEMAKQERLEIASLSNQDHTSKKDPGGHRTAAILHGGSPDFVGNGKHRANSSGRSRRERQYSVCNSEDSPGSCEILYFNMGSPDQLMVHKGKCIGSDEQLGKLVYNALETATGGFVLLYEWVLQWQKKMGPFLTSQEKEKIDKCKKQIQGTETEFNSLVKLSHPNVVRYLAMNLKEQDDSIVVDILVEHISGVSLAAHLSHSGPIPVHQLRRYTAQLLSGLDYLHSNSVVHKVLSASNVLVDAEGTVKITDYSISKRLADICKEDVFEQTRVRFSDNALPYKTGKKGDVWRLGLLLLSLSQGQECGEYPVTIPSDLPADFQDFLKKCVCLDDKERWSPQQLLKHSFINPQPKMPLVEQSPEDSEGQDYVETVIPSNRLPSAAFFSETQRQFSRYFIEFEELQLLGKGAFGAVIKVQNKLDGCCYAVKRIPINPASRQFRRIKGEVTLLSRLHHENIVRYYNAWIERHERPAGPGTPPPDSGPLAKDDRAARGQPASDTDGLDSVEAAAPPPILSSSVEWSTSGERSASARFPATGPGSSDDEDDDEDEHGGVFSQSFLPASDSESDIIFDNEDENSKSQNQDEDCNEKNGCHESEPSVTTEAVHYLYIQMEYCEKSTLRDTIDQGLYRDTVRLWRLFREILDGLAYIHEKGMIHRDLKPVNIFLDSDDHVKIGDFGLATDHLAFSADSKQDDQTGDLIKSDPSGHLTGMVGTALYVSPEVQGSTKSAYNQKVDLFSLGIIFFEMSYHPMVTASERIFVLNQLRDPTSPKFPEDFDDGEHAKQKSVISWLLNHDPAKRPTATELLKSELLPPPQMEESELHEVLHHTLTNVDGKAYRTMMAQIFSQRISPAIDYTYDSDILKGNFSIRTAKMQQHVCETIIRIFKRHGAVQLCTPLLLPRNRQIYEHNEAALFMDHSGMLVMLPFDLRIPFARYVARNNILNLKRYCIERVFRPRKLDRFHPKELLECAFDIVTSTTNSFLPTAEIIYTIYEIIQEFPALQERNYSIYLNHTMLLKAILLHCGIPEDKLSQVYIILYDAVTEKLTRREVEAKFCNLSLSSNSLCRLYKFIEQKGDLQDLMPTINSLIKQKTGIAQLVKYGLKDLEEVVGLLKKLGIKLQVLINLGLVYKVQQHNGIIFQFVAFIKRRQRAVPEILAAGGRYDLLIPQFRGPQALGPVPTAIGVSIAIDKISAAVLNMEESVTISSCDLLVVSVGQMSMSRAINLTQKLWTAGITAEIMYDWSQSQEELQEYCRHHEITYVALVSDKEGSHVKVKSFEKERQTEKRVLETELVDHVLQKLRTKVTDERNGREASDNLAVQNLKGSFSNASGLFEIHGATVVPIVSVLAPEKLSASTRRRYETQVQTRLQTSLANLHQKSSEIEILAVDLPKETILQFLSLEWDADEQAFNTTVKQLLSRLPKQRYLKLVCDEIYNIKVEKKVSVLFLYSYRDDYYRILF

Row | IC50 [µM] | Structure (SMILES)
1 | < 0.5 | COC(=O)c1ccc(Cl)cc1S(=O)(=O)Nc1ccc(F)c(-c2ccc3c(-c4ncc[nH]4)n[nH]c3c2F)c1F [Example 2BC, methyl 4-chloro-2-(N-(2,4-difluoro-3-(7-fluoro-3-(1H-imidazol-2-yl)-1H-indazol-6-yl)phenyl)sulfamoyl)benzoate]
2 | 2.5 to 10 | Cc1n[nH]c2cc(-c3c(F)ccc(NS(=O)(=O)c4cc(F)ccc4F)c3F)ccc12 [Example 2CC, N-(2,4-difluoro-3-(3-methyl-1H-indazol-6-yl)phenyl)-2,5-difluorobenzenesulfonamide]
3 | < 0.5 | COc1ncc(Cl)cc1S(=O)(=O)Nc1ccc(F)c(-c2ccc3c(-c4ncc[nH]4)n[nH]c3c2F)c1Cl [Example 2T, 5-chloro-N-(2-chloro-4-fluoro-3-(7-fluoro-3-(1H-imidazol-2-yl)-1H-indazol-6-yl)phenyl)-2-methoxypyridine-3-sulfonamide]
4 | 0.5 to 2.5 | COc1nn(C)cc1S(=O)(=O)Nc1ccc(F)c(-c2ccc3c(-c4ncc[nH]4)n[nH]c3c2F)c1F [Example 2K, N-(2,4-difluoro-3-(7-fluoro-3-(1H-imidazol-2-yl)-1H-indazol-6-yl)phenyl)-3-methoxy-1-methyl-1H-pyrazole-4-sulfonamide]
5 | 2.5 to 10 | COc1ncc(Cl)cc1S(=O)(=O)Nc1cc(C)nc(-c2ccc3c(-c4ncc[nH]4)n[nH]c3c2F)c1F [Example 2AO, 5-chloro-N-(3-fluoro-2-(7-fluoro-3-(1H-imidazol-2-yl)-1H-indazol-6-yl)-6-methyl-pyridin-4-yl)-2-methoxy-pyridine-3-sulfonamide]
6 | 2.5 to 10 | O=S(=O)(Nc1ccc(F)c(-c2ccc3c(-c4ncc[nH]4)n[nH]c3c2F)c1F)c1cccnc1 [Example 2CO, N-(2,4-difluoro-3-(7-fluoro-3-(1H-imidazol-2-yl)-1H-indazol-6-yl)phenyl)pyridine-3-sulfonamide]
7 | < 0.5 | COc1ncc(Cl)cc1S(=O)(=O)Nc1ccc(F)c(-c2ccc3c(C(=O)NC(C)C)n[nH]c3c2F)c1F [Example 2CK, 6-(3-((5-chloro-2-methoxy-pyridine)-3-sulfonamido)-2,6-difluorophenyl)-7-fluoro-N-isopropyl-1H-indazole-3-carboxamide]
8 | 0.5 to 2.5 | COc1cccc(S(=O)(=O)Nc2ccc(F)c(-c3ccc4c(-c5ncc[nH]5)n[nH]c4c3F)c2F)c1C [Example 2AR, N-(2,4-difluoro-3-(7-fluoro-3-(1H-imidazol-2-yl)-1H-indazol-6-yl)phenyl)-3-methoxy-2-methylbenzene-sulfonamide]
9 | 0.5 to 2.5 | COc1ccccc1S(=O)(=O)Nc1ccc(F)c(-c2ccc3c(-c4ncc[nH]4)n[nH]c3c2F)c1F [Example 2BF, N-(2,4-difluoro-3-(7-fIuoro-3-(1H-imidazol-2-yl)-1H-indazol-6-yl)phenyl)-2-methoxybenzenesulfonamide]
10 | 2.5 to 10 | Cn1cc(S(=O)(=O)Nc2ccc(F)c(-c3ccc4c(-c5ncc[nH]5)n[nH]c4c3F)c2F)cn1 [Example 2C, N-(2,4-difluoro-3-(7-fluoro-3-(1H-imidazol-2-yl)-1H-indazol-6-yl)phenyl)-1-methyl-1H-pyrazole-4-sulfonamide]
11 | < 0.5 | Cc1ccc(C)c(S(=O)(=O)Nc2ccc(F)c(-c3ccc4c(-c5ncc[nH]5)n[nH]c4c3F)c2F)c1 [Example 2BI, N-(2,4-difluoro-3-(7-fluoro-3-(1H-imidazol-2-yl)-1H-indazol-6-yl)phenyl)-2,5-dimethylbenzenesulfonamide]
12 | 2.5 to 10 | Cn1cc(S(=O)(=O)Nc2ccc(F)c(-c3ccc4c(-c5ncc[nH]5)n[nH]c4c3F)c2F)nn1 [Example 2W, N-(2,4-difluoro-3-(7-fluoro-3-(1H-imidazol-2-yl)-1H-indazol-6-yl)phenyl)-1-methyl-1H-1,2,3-triazole-4-sulfonamide]
13 | < 0.5 | Cc1noc(C)c1S(=O)(=O)Nc1ccc(F)c(-c2ccc3c(-c4ncc[nH]4)n[nH]c3c2F)c1F [Example 2AZ, N-(2,4-difluoro-3-(7-fluoro-3-(1H-imidazol-2-yl)-1H-indazol-6-yl)phenyl)-3,5-dimethylisoxazole-4-sulfonamide]
14 | < 0.5 | O=S(=O)(Nc1ccc(F)c(-c2ccc3c(-c4ncc[nH]4)n[nH]c3c2F)c1F)c1c(F)cccc1F [Example 2BG, N-(2,4-difluoro-3-(7-fluoro-3-(1H-imidazol-2-yl)-1H-indazol-6-yl)phenyl)-2,6-difluorobenzenesulfonamide]
15 | < 0.5 | COc1ncc(Cl)cc1S(=O)(=O)Nc1cccc(-c2ccc3c(-c4ncc[nH]4)n[nH]c3c2F)c1Cl [Example 2O, 5-chloro-N-(2-chloro-3-(7-fluoro-3-(1H-imidazol-2-yl)-1H-indazol-6-yl)phenyl)-2-methoxy-pyridine-3-sulfonamide]
16 | < 0.5 | COc1ncc(Cl)cc1S(=O)(=O)Nc1ccc(F)c(-c2ccc3c(C(=O)NCCO)n[nH]c3c2F)c1F [Example 2CH, 6-(3-((5-chloro-2-methoxy-pyridine)-3-sulfonamido)-2,6-difluorophenyl)-7-fluoro-N-(2-hydroxyethyl)-1H-indazole-3-carboxamide]

Same assay, conditions: Table 9

Row | Structure (SMILES) | IC50 [µM]
17 | COc1ncc(Cl)cc1S(=O)(=O)Nc1cc(F)cc(-c2ncc3c(-c4ncc[nH]4)n[nH]c3c2F)c1F [Example 36, 5-chloro-N-[2,5-difluoro-3-[7-fluoro-3-(1H-imidazol-2-yl)-1H-pyrazolo[4,3-c]pyridin-6-yl]phenyl]-2-methoxy-pyridine-3-sulfonamide] | < 0.5
18 | COc1ncc(F)cc1S(=O)(=O)Nc1cccc(-c2ccc3c(-c4ncc[nH]4)n[nH]c3c2C)c1F [Example 22, N-(3-(3-(1H-Imidazol-2-yl)-7-methyl-1H-indazol-6-yl)-2-fluorophenyl)-5-fluoro-2-methoxypyridine-3-sulfonamide] | 0.5 to 2.5

Further lines, results first:

Row | IC50 [µM] | Structure (SMILES)
19 | 2.5 to 10 | COc1ncccc1S(=O)(=O)Nc1nccc(-c2ccc3c(-c4ncc[nH]4)n[nH]c3c2F)c1C#N [Example 3J, N-(3-cyano-4-(7-fluoro-3-(1H-imidazol-2-yl)-1H-indazol-6-yl)pyridin-2-yl)-2-methoxypyridine-3-sulfonamide]
20 | < 0.5 | NC(=O)c1n[nH]c2c(F)c(-c3c(F)ccc(NS(=O)(=O)c4cc(F)cc5c4CCC5O)c3F)ccc12 (stereo not shown) [Example 4R]
21 | < 0.5 | COc1ncc(C#N)cc1S(=O)(=O)Nc1cc(F)cc(-c2ccc3c(-c4ncc[nH]4)n[nH]c3c2F)c1F [Example 3BV, 5-cyano-N-(2,5-difluoro-3-(7-fluoro-3-(1H-imidazol-2-yl)-1H-indazol-6-yl)phenyl)-2-methoxypyridine-3-sulfonamide]
22 | < 0.5 | Cc1ncc(F)cc1S(=O)(=O)Nc1cc(F)cc(-c2ccc3c(C(N)=O)n[nH]c3c2F)c1F [Example 3CG, 6-(2,5-difluoro-3-((5-fluoro-2-methylpyridine)-3-sulfon-amido)phenyl)-7-fluoro-1H-indazole-3-carboxamide]
23 | < 0.5 | COc1ncc(Cl)cc1S(=O)(=O)Nc1cccc(-c2cc3[nH]nc(C(=O)NCCCO)c3cn2)c1F [Example 3BC, 6-(3-((5-chloro-2-methoxy-pyridine)-3-sulfonamido)-2-fluorophenyl)-N-(3-hydroxy-propyl)-1H-pyrazolo[4,3-c]pyridine-3-carboxamide]
24 | < 0.5 | COc1ncc(F)cc1S(=O)(=O)Nc1ccc(C#N)c(-c2ccc3c(C(=O)NCCCO)n[nH]c3c2F)c1F [Example 3CA, 6-(6-cyano-2-fluoro-3-((5-fluoro-2-methoxypyridine)-3-sulfonamido)phenyl)-7-fluoro-N-(3-hydroxypropyl)-1H-indazole-3-carboxamide]
25 | 0.5 to 2.5 | COc1ncc(F)cc1S(=O)(=O)Nc1ccc(F)c(-c2ccc3c(C(=O)N[C@H]4CCN(C)C4)n[nH]c3c2F)c1F [Example 3AC, 6-(3-((5-fluoro-2-methoxy-pyridine)-3-sulfonamido)-2,6-difluorophenyl)-7-fluoro-N-((S)-1-methylpyrrolidin-3-yl)-1H-indazole-3-carboxamide]
26 | < 0.5 | COc1ncc(Cl)cc1S(=O)(=O)Nc1ccc(F)c(-c2ccc3c(C(=O)NC[C@@H]4CCCN4C)n[nH]c3c2F)c1F [Example 3E, 6-(3-((5-chloro-2-methoxy-pyridine)-3-sulfonamido)-2,6-difluorophenyl)-7-fluoro-N-(((S)-1-methylpyrrolidin-2-yl)methyl)-1H-indazole-3-carboxamide]
27 | < 0.5 | COc1ncc(Cl)cc1S(=O)(=O)Nc1ccc(F)c(-c2ccc3c(-c4cnn[nH]4)n[nH]c3c2F)c1F [Example 4AN]
28 | 0.5 to 2.5 | COc1ncc(CO)cc1S(=O)(=O)Nc1ccc(F)c(-c2ccc3c(-c4ncc[nH]4)n[nH]c3c2F)c1F [Example 3DC, N-(2,4-difluoro-3-(7-fluoro-3-(1H-imidazol-2-yl)-1H-indazol-6-yl)phenyl)-5-(hydroxylmethyl)-2-methoxypyridine-3-sulfonamide]
29 | < 0.5 | CN(C)CCCNC(=O)c1n[nH]c2c(F)c(-c3c(F)ccc(NS(=O)(=O)c4cc(F)cc(CO)c4F)c3F)ccc12 [Example 4P]
30 | < 0.5 | O=C(Nc1cnn(CCO)c1)c1n[nH]c2c(F)c(-c3c(F)ccc(NS(=O)(=O)c4cc(F)cc5c4CCC5O)c3F)ccc12 (stereo not shown) [Example 4AJ]
31 | < 0.5 | Cn1cc(NC(=O)c2n[nH]c3c(F)c(-c4c(F)ccc(NS(=O)(=O)c5cc(F)cc6c5CCC6O)c4F)ccc23)cn1 (stereo not shown) [Example 4AI]
32 | < 0.5 | COc1ncc(F)cc1S(=O)(=O)Nc1cc(F)cc(-c2ccc3c(C(=O)NCCCO)n[nH]c3c2F)c1F [Example 3AP, 6-(2,5-difluoro-3-((5-fluoro-2-methoxypyridine)-3-sulfon-amido)phenyl)-7-fluoro-N-(3-hydroxypropyl)-1H-indazole-3-carboxamide]
33 | < 0.5 | Cc1c(CO)cc(F)cc1S(=O)(=O)Nc1ccc(F)c(-c2ccc3c(C(=O)NCCCO)n[nH]c3c2F)c1F [Example 4H]
34 | < 0.5 | Cc1ncc(F)cc1S(=O)(=O)Nc1cc(F)cc(-c2ccc3c(C(=O)NCCCN(C)C)n[nH]c3c2F)c1F [Example 3CD, 6-(2,5-difluoro-3-((5-fluoro-2-methylpyridine)-3-sulfonamido)phenyl)-N-(3-(dimethylamino)propyl)-7-fluoro-1H-indazole-3-carboxamide]
